The test system of the assay is HSV-1 (KOS strain). Briefly: Plaque Reduction Assay (PRA) for anti-viral activity, HSV-1. To be noted: product of reduction of Aloe emodin. It counts as cell-based, herpes simplex virus type 1 (KOS strain). The procedure: The extract has a direct virucidal effect on HSV under the standardly accepted assay conditions employed. This effect is demonstrable by mixing the test extract directly with HSV and incubating the mixture for 15 minutes at 37° C., then diluting the mixture and assaying for the amount of viable HSV capable of producing plaques in an in vitro cell culture system. A plaque is defined as a visible, localized destruction of cells in culture produced by a single infectious virus particle or plaque forming unit and is the most sensitive assay in virology for quantitating viruses. Depending on the type and concentration of the test extract used, complete inactivation of HSV plaque forming units can be achieved in 15 minutes or less.
Material for testing was obtained from Aloe plants using either whole leaf homogenates, sap or gel. Other materials for testing included dried leaves of Aloe vera and Senna, dried bark of Frangula and Cascara, dried rhizomes of Rhubarb and a commercial preparation of Aloin. All samples were tested for anti-viral activity by a Plaque Reduction Assay (PRA) using monolayer cultures of Vero (African Green Monkey Kidney) cells grown in MEM+5% calf serum. […] After adsorption, the inoculum was removed, a methyl cellulose/MEM overlay medium was added and after three days incubation the number of plaques per dish counted and averaged. […]
For orientation: Plaque reduction counts the foci of infection that form in a cell layer.

Turning to `O=C1c2ccccc2Cc2ccccc21` [anthrone], the “anti-viral activity (in words)” value is recorded as “loss of anti-viral activity”.
